The source of these data is patent US11471537B2, “Oligomer extended insulin-Fc conjugates” (Novo Nordisk A/S, priority 2017, dated 2022).

Data set [1] can be described thus: PK studies: intravenous and subcutaneous administration to SD rats, insulin-Fc concentrations by immuno-assay. The conditions noted are these: for PK rat sc [T½ (h)] Mean Value: subcutaneous. The format is in vivo. The method, then: Insulin-Fc conjugates were tested in vivo by intravenous and subcutaneous administration to SD rats. Blood samples were collected and the insulin-Fc concentrations were measured by immuno-assay.

A further data set deals with isolated rat adipocytes. As to the kind of experiment: Insulin-stimulated lipogenesis. The conditions noted are these: 1% HSA; relative to the activity of human insulin (100%). It is filed as cell-based. The method, then: Insulin-stimulated lipogenesis was measured in isolated rat adipocytes in presence of 1% HSA as described in Moody A J, Stan M A, Stan M, Gliemann J. A Simple Free Fat Cell Bioassay for Insulin. Hormone And Metabolic Research. 1974; 6(1):12-6, see results in Table 6.

In the next data set the target is insulin receptor A (Homo sapiens, UniProt P06213). As to the kind of experiment: Insulin receptor affinity. It is filed as binding. Conditions: relative to affinity of human insulin for insulin receptor A (100%).
The next data set has as its system Sprague-Dawley rats. As to the kind of experiment: PD studies: blood glucose after subcutaneous dosing. The format is in vivo. The conditions noted are these: sc, dose 30 nmol/kg. As to the method: The pharmacodynamic effect of the Insulin Fc conjugates of the examples were investigated in normal male Sprague-Dawley rats weighing approx. 350 g at study start.
Animals had free access to food and water during the experiment period. They were dosed subcutaneously in the neck region with a dose of 30 nmol/kg (unless otherwise stated in the figures below). Blood samples for blood glucose and plasma insulin analysis were collected from the tongue veins up to 10 days post dosing. Blood glucose was measured using Biosen S Line (EKF).

insulin receptor A, sequence (P06213 28-1370 isoform P06213-2 limits assumed): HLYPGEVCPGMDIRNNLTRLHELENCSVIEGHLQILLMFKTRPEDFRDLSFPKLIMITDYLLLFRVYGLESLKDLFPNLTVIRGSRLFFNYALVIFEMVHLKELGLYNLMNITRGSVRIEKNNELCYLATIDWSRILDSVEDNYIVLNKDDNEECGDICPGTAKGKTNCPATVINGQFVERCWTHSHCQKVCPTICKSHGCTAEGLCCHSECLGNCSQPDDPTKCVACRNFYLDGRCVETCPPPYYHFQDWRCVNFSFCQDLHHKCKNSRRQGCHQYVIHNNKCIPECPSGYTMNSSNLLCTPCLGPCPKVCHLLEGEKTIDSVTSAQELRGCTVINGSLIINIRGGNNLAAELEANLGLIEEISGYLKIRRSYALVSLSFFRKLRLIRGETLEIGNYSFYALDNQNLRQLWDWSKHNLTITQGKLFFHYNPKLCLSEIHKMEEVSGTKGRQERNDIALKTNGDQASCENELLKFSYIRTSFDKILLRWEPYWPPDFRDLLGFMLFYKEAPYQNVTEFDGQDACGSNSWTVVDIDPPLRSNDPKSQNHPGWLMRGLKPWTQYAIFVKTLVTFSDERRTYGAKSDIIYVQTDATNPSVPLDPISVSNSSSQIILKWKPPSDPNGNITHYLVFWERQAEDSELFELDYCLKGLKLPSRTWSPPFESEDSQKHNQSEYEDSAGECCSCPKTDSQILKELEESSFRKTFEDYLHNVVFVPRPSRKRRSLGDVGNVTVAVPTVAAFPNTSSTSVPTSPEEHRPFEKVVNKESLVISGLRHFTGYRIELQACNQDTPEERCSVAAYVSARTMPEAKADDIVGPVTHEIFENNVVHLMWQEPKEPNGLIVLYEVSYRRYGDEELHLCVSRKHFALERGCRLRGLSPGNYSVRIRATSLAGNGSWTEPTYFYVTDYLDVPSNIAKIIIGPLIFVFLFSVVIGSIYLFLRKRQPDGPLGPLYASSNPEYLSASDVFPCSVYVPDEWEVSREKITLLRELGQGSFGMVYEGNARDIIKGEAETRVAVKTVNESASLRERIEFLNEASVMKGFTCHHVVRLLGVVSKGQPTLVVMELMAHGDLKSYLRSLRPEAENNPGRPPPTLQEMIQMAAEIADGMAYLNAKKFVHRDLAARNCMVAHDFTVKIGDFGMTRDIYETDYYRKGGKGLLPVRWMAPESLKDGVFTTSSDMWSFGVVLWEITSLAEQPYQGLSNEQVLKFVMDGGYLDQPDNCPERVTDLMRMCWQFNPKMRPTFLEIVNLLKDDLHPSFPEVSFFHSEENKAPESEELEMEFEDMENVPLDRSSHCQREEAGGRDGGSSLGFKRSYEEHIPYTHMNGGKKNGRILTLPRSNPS
insulin receptor A, sequence (P06213 763-1382 partner limits assumed): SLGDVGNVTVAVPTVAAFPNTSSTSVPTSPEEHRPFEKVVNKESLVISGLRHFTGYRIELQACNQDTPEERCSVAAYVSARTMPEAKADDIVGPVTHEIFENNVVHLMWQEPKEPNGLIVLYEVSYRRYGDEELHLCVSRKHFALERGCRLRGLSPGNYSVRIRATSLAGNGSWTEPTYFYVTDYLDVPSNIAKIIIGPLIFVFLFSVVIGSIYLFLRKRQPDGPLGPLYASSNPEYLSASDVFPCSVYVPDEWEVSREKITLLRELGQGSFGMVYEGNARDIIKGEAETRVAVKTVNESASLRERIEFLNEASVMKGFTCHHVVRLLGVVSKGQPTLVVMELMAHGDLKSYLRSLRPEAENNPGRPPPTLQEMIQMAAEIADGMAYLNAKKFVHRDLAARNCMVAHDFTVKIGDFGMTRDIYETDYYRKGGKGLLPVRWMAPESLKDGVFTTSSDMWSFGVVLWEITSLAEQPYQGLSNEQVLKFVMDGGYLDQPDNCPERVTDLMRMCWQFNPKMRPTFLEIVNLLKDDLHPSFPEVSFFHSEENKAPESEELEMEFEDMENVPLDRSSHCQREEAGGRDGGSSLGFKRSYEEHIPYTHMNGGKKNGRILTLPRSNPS

“A14E, B(−78K^), B(−77P), B(−1)(GQEP)19, B25H, B29R, desB30 human insulin/(227A, 234A, 235K hIgG4-Fc(228-447))4-[bis[2-[(2-acetyl)amino]ethyl]amino]-4-oxo-butanoyl Conjugate [Example 5.4]”: in data set [1], the “PK rat iv [T½ (h)] Mean Value” was 26.4 h and the “PK rat sc [T½ (h)] Mean Value” is on record as 32.2 h. The “Lipogenesis in rat adipocytes [Potency (%)] Mean Value” with isolated rat adipocytes came to 0.36%. In addition, the “Insulin receptor affinity [IC50 relative to HI (%)] Mean Value” at insulin receptor A was 2.14%.

For the substance “(A14E, A21G, A22(GQAP)18, A94G, A95Q, A96A, A97K^, A98P, B29R, desB30 human insulin)/(227A, 234A, 235K, 297E, 315Q, 384Q, des447 hIgG4-Fc(228-447))4-[bis[2-[(2-acetyl)amino]ethyl]amino]-4-oxo-butanoyl Conjugate [Example 5.26]”, the Average blood glucose was 5.82 mM in the data set with Sprague-Dawley rats (time 0 days); 5.984 mM in the data set on Sprague-Dawley rats (time 0.041667 days); 5.3 mM in the data set with Sprague-Dawley rats (time 0.125 days); 4.384 mM in the data set on Sprague-Dawley rats (time 0.291667 days); 3.332 mM in the data set on Sprague-Dawley rats (time 1 day); 4.992 mM in the data set on Sprague-Dawley rats (time 2 days). Also, the Average blood glucose in the data set on Sprague-Dawley rats (time 3 days) is recorded as 6.352 mM; in the data set on Sprague-Dawley rats (time 4 days), 5.804 mM; with Sprague-Dawley rats (time 5 days), 5.752 mM; with Sprague-Dawley rats (time 6 days) it was 6.232 mM; in the data set with Sprague-Dawley rats (time 7 days), 6.048 mM; in the data set on Sprague-Dawley rats (time 8 days) it was 6.236 mM. Further, the Average blood glucose in the data set with Sprague-Dawley rats (time 9 days) came to 5.972 mM; in the data set on Sprague-Dawley rats (time 10 days), 5.88 mM. In addition, the “PK rat iv [T½ (h)] Mean Value” in data set [1] turned out to be 49.8 h. In addition, the “PK rat sc [T½ (h)] Mean Value” in data set [1] was 53.5 h. In addition, in the data set on isolated rat adipocytes, the “Lipogenesis in rat adipocytes [Potency (%)] Mean Value” turned out to be 3.23%. Also, the “Insulin receptor affinity [IC50 relative to HI (%)] Mean Value” at insulin receptor A came out at 3.95%.

Turning to “A14E, B(−78K^), B(−77P), B(−1)(GQEP)19, B25H, B29R, desB30 human insulin/(227A, 234A, 235K, 297E, 315Q, 384Q, des447 hIgG4-Fc(228-447))4-[bis[2-[(2-acetyl)amino]ethyl]amino]-4-oxo-butanoyl Conjugate [Example 5.11]”, in data set [1], the “PK rat iv [T½ (h)] Mean Value” was 30.7 h and the “PK rat sc [T½ (h)] Mean Value” was determined as 33.1 h. Besides, the “Lipogenesis in rat adipocytes [Potency (%)] Mean Value” in the data set on isolated rat adipocytes was 0.39%. The “Insulin receptor affinity [IC50 relative to HI (%)] Mean Value” at insulin receptor A turned out to be 1.72%.

With “(A1(N(alpha)acetyl), A14E, A21G, A22(GQAP)19, A98K^, A99P, B1(N(alpha)acetyl), B25H, B29R, desB30 human insulin)/(227A, 234A, 235K, 297E, 315Q, 384Q, des447 hIgG4-Fc(228-447))4-[bis[2-[(2-acetyl)amino]ethyl]amino]-4-oxo-butanoyl Conjugate [Example 5.27]”, the Average blood glucose in the data set on Sprague-Dawley rats (time 0 days) is given as 5.504 mM; with Sprague-Dawley rats (time 0.041667 days), 6.308 mM; in the data set on Sprague-Dawley rats (time 0.125 days) it was 5.72 mM; in the data set on Sprague-Dawley rats (time 0.291667 days), 5.164 mM; in the data set on Sprague-Dawley rats (time 1 day), 3.036 mM; in the data set with Sprague-Dawley rats (time 2 days), 3.852 mM. Besides, the Average blood glucose in the data set on Sprague-Dawley rats (time 3 days) came out at 4.384 mM; in the data set with Sprague-Dawley rats (time 4 days) it was 5.272 mM; in the data set on Sprague-Dawley rats (time 5 days), 5.236 mM; with Sprague-Dawley rats (time 6 days), 5.564 mM; in the data set with Sprague-Dawley rats (time 7 days), 5.824 mM; in the data set with Sprague-Dawley rats (time 8 days), 5.924 mM. The Average blood glucose in the data set with Sprague-Dawley rats (time 9 days) is on record as 5.68 mM; in the data set with Sprague-Dawley rats (time 10 days) it was 6.12 mM. Further, in data set [1], the “PK rat iv [T½ (h)] Mean Value” turned out to be 40.7 h. The “PK rat sc [T½ (h)] Mean Value” in data set [1] is 50.4 h. In addition, the “Insulin receptor affinity [IC50 relative to HI (%)] Mean Value” at insulin receptor A is recorded as 1.07%.

As for “(A14E, A21G, A22(GQAP)24, A118G, A119Q, A120A, A121K^, A122P, B25H, B29R, desB30 human insulin)/(227A, 234A, 235K, 297E, 315Q, 384Q, des447 hIgG4-Fc(228-447))4-[bis[2-[(2-acetyl)amino]ethyl]amino]-4-oxo-butanoyl Conjugate [Example 5.23]”, the Average blood glucose in the data set with Sprague-Dawley rats (time 0 days) stood at 5.384 mM; in the data set with Sprague-Dawley rats (time 0.041667 days), 5.768 mM; in the data set with Sprague-Dawley rats (time 0.125 days) it was 4.808 mM; with Sprague-Dawley rats (time 0.291667 days) it was 4.136 mM; with Sprague-Dawley rats (time 1 day), 2.86 mM; with Sprague-Dawley rats (time 2 days) it was 2.6 mM. For the same substance, the Average blood glucose turned out to be 3.536 mM in the data set with Sprague-Dawley rats (time 3 days); 5.544 mM with Sprague-Dawley rats (time 4 days); 5.684 mM in the data set on Sprague-Dawley rats (time 5 days); 5.796 mM in the data set with Sprague-Dawley rats (time 6 days); 6.056 mM in the data set on Sprague-Dawley rats (time 7 days); 5.672 mM in the data set with Sprague-Dawley rats (time 8 days). In addition, the Average blood glucose in the data set on Sprague-Dawley rats (time 9 days) is 5.62 mM; in the data set on Sprague-Dawley rats (time 10 days) it was 6.308 mM. The “PK rat iv [T½ (h)] Mean Value” in data set [1] is 57.1 h. The “PK rat sc [T½ (h)] Mean Value” in data set [1] came out at 73.2 h. In addition, in the data set on isolated rat adipocytes, the “Lipogenesis in rat adipocytes [Potency (%)] Mean Value” came to 5.36%. Besides, on insulin receptor A, the “Insulin receptor affinity [IC50 relative to HI (%)] Mean Value” is recorded as 4.70%.

Take “(A14E, A21G, A22(GQAP)19, A98K^, A99P, B25H, B29R, desB30 human insulin)/(227A, 234A, 235K, 297E, 315Q, 384Q, des447 hIgG4-Fc(228-447))4-[bis[2-[(2-acetyl)amino]ethyl]amino]-4-oxo-butanoyl Conjugate [Example 5.15]”: the Average blood glucose with Sprague-Dawley rats (time 0 days) came out at 6.748 mM; in the data set on Sprague-Dawley rats (time 0.041667 days) it was 6.168 mM; with Sprague-Dawley rats (time 0.125 days), 5.052 mM; in the data set on Sprague-Dawley rats (time 0.291667 days) it was 3.292 mM; with Sprague-Dawley rats (time 1 day), 2.524 mM; in the data set on Sprague-Dawley rats (time 2 days), 2.752 mM. The Average blood glucose is reported as 4.116 mM with Sprague-Dawley rats (time 3 days); 5.744 mM with Sprague-Dawley rats (time 4 days); 6.32 mM with Sprague-Dawley rats (time 6 days); 6.516 mM in the data set on Sprague-Dawley rats (time 7 days); 5.904 mM with Sprague-Dawley rats (time 8 days). Besides, in data set [1], the “PK rat iv [T½ (h)] Mean Value” came out at 58.4 h. In addition, the “PK rat sc [T½ (h)] Mean Value” in data set [1] is recorded as 67.6 h. Besides, in the data set with isolated rat adipocytes, the “Lipogenesis in rat adipocytes [Potency (%)] Mean Value” was found to be 3.68%. For the same substance, the “Insulin receptor affinity [IC50 relative to HI (%)] Mean Value” on insulin receptor A came out at 3.68%.

For the substance “A14E, A21G, A22(GQAPGQAPGQEP)6-GQAP, A98K^, A99P, B29R, desB30 human insulin/(227A, 234A, 235K, 297E, 315Q, 384Q, des447 hIgG4-Fc(228-447))4-[bis[2-[(2-acetyl)amino]ethyl]amino]-4-oxo-butanoyl Conjugate [Example 5.19]”, the Average blood glucose was found to be 6.4 mM in the data set with Sprague-Dawley rats (time 0 days); 5.988 mM with Sprague-Dawley rats (time 0.041667 days); 4.92 mM in the data set with Sprague-Dawley rats (time 0.125 days); 3.84 mM with Sprague-Dawley rats (time 0.291667 days); 2.632 mM with Sprague-Dawley rats (time 1 day); 2.62 mM in the data set with Sprague-Dawley rats (time 2 days). In addition, the Average blood glucose is 4.312 mM in the data set with Sprague-Dawley rats (time 3 days); 6.104 mM with Sprague-Dawley rats (time 4 days); 5.9 mM with Sprague-Dawley rats (time 6 days); 6.128 mM in the data set with Sprague-Dawley rats (time 7 days); 5.512 mM with Sprague-Dawley rats (time 8 days). The “PK rat iv [T½ (h)] Mean Value” in data set [1] was 30.8 h. Also, the “PK rat sc [T½ (h)] Mean Value” in data set [1] is on record as 55.0 h. Also, the “Lipogenesis in rat adipocytes [Potency (%)] Mean Value” in the data set on isolated rat adipocytes turned out to be 3.02%. On insulin receptor A, the “Insulin receptor affinity [IC50 relative to HI (%)] Mean Value” was 4.00%.

Regarding “A14E, B(−78K^), B(−77P), B(−1)(GQAPGQAPGQEP)6-GQAP, B3Q, B25H, B29R, desB30 human insulin/(227A, 234A, 235K hIgG4-Fc(228-447))4-[bis[2-[(2-acetyl)amino]ethyl]amino]-4-oxo-butanoyl Conjugate [Example 5.3]”, in data set [1], the “PK rat iv [T½ (h)] Mean Value” amounted to 35.6 h and the “PK rat sc [T½ (h)] Mean Value” is listed as 33.1 h. Besides, the “Lipogenesis in rat adipocytes [Potency (%)] Mean Value” in the data set with isolated rat adipocytes is 0.55%. Further, the “Insulin receptor affinity [IC50 relative to HI (%)] Mean Value” at insulin receptor A is recorded as 2.57%.

Take “A14E, B(−78K^), B(−77P), B(−1)(GQAP)19, B25H, B29R, desB30 human insulin/(227A, 234A, 235K, 297E, 315Q, 384Q, des447 hIgG4-Fc(228-447))4-[bis[2-[(2-acetyl)amino]ethyl]amino]-4-oxo-butanoyl Conjugate [Example 5.18]”: in data set [1], the “PK rat iv [T½ (h)] Mean Value” worked out at 24.9 h and the “PK rat sc [T½ (h)] Mean Value” worked out at 28.0 h. In addition, in the data set with isolated rat adipocytes, the “Lipogenesis in rat adipocytes [Potency (%)] Mean Value” is 0.87%. Moreover, the “Insulin receptor affinity [IC50 relative to HI (%)] Mean Value” on insulin receptor A was determined as 2.78%.
